# Measurements taken from patent US20070218150A1, “Active Oxygen Scavenging Agent and Moisturizing Agent Containing Wild Watermelon Extract” (priority 2004, published 2007).
# Experiment: active oxygen (hydroxyl radical) scavenging, competitive reaction analysis using salicylic acid oxidation as an index
# Assay type: biochemical
# Details: 50 mg/l of citrulline solution; 25 degrees, 90 minutes, pH 7.4
# Protocol: The active oxygen scavenging ability of the wild watermelon fruit extract is assayed by competitive reaction analysis using salicylic acid oxidation as an index. Specifically, 2 mM salicylic acid and the wild watermelon fruit extract of various concentrations are dissolved in 50 mM phosphate buffer (pH 7.4). After that, by adding 0.6 mM of hydrogen peroxide, 0.15 mM of FeEDTA and 0.26 mM of ascorbic acid, hydroxyl radical is generated, and reacted at 25 degrees for 90 minutes. Quantitation of dihydroxyl benzoic acid (DHBA) generated by salicylic acid oxidation followed the method as set forth in the literature (Smirnofff and Cumbes (1989) Phytochemistry, 28: 1057-1060.)
structure (smiles),measurement,value
NC(=O)NCCC[C@H](N)C(=O)O [citrulline],inhibition of salicylic acid oxidation,6%
